In PubChem BioAssay AID248 (DTP/NCI, 2004):
Several values for one entry are separate records, joined by “and”; a condition that tells them apart may be missing. Identical values can stand only once. Inconclusive results and toxic doses are left out. Cut-off read from the data, not from the text of the source: active = T/C of 150% or more; inactive = T/C below 125%.

Test system: L1210 leukemia ip in BDF1 mice, survival T/C
Assay: NCI In Vivo Anticancer Drug Screen. Data for tumor model L1210 Leukemia (intraperitoneal) in B6D2F1 (BDF1) mice
Conditions: endpoint: mean survival time, higher = longer survival
Procedure, shortened: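 In this screen, tumor-bearing mice given compound are compared to those given vehicle, and their survival values are reported as a treated-to-control quotient.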

[1] = dose: 100.0 mg/kg/injection, schedule: Q01DX009 (ip), vehicle: Klucel (hydroxypropylcellulose) (HPC)
[2] = dose: 100.0 mg/kg/injection, schedule: Q01DX001 (ip), vehicle: saline
[3] = dose: 100.0 mg/kg/injection, schedule: Q01DX009 (ip), vehicle: saline with Tween-80
[4] = dose: 100.0 mg/kg/injection, schedule: Q04DX003 (ip), vehicle: saline
[5] = dose: 200.0 mg/kg/injection, schedule: Q01DX001 (ip), vehicle: saline
[6] = dose: 200.0 mg/kg/injection, schedule: Q01DX009 (ip), vehicle: saline with Tween-80
[7] = dose: 200.0 mg/kg/injection, schedule: Q04DX003 (ip), vehicle: saline
[8] = dose: 400.0 mg/kg/injection, schedule: Q01DX001 (ip), vehicle: saline
[9] = dose: 400.0 mg/kg/injection, schedule: Q04DX003 (ip), vehicle: saline
[10] = dose: 50.0 mg/kg/injection, schedule: Q01DX009 (ip), vehicle: saline with Tween-80
[11] = dose: 100.0 mg/kg/injection, schedule: Q04DX003 (ip), vehicle: saline with Tween-80
[12] = dose: 200.0 mg/kg/injection, schedule: Q04DX003 (ip), vehicle: saline with Tween-80
[13] = dose: 100.0 mg/kg/injection, schedule: Q04DX003 (ip), vehicle: carboxymethylcellulose (CMC)
[14] = dose: 200.0 mg/kg/injection, schedule: Q04DX003 (ip), vehicle: carboxymethylcellulose (CMC)
[15] = dose: 200.0 mg/kg/injection, schedule: Q01DX009 (ip), vehicle: Klucel (hydroxypropylcellulose) (HPC)
[16] = dose: 100.0 mg/kg/injection, schedule: Q01DX001 (ip), vehicle: carboxymethylcellulose (CMC)
[17] = dose: 200.0 mg/kg/injection, schedule: Q01DX001 (ip), vehicle: carboxymethylcellulose (CMC)

Measured: T/C

S=C(NCCN1CCCC1)Nc1ccccc1
inactive: dose: 25.0 mg/kg/injection, schedule: Q01DX009 (ip), vehicle: Klucel (hydroxypropylcellulose) (HPC) 119 % of control | dose: 50.0 mg/kg/injection, schedule: Q01DX009 (ip), vehicle: Klucel (hydroxypropylcellulose) (HPC) 104 % of control | [1] 97 % of control and 114 % of control

Cc1ccc(Nc2cc(Cl)nc(N)n2)cc1Cl
inactive: dose: 100.0 mg/kg/injection, schedule: Q01DX Z (ip), vehicle: methylcellulose (MC) 97 % of control | dose: 200.0 mg/kg/injection, schedule: Q01DX Z (ip), vehicle: methylcellulose (MC) 100 % of control

COc1ccc(Cl)cc1NC(=O)Nc1c(C)n(C)n(-c2ccccc2)c1=O
inactive: [2] 90 % of control | [3] 89 % of control | [4] 97 % of control | [5] 89 % of control | [6] 89 % of control | [7] 101 % of control | [8] 94 % of control | dose: 400.0 mg/kg/injection, schedule: Q01DX009 (ip), vehicle: saline with Tween-80 87 % of control | [9] 92 % of control

CCOC(=O)N(C)C1CCC1NC (stereo not given)
inactive: [4] 98 % of control | [7] 112 % of control | [9] 104 % of control

CC1(C)COP(=O)(O)OC1
inactive: [10] 105 % of control | [2] 101 % of control | [3] 96 % of control | [5] 93 % of control | [6] 91 % of control

O=c1[nH]c2c(cnn2-c2ccccc2)c(=O)n1OS(=O)(=O)c1ccccc1
inactive: dose: 50.0 mg/kg/injection, schedule: Q01DX001 (ip), vehicle: saline 103 % of control | [2] 103 % of control | [5] 100 % of control | [8] 97 % of control

CC(C)(CS(C)(=O)=O)C(=O)O
inactive: [2] 98 % of control | dose: 100.0 mg/kg/injection, schedule: Q01DX009 (ip), vehicle: saline 89 % of control | [5] 98 % of control | [8] 101 % of control | dose: 400.0 mg/kg/injection, schedule: Q01DX009 (ip), vehicle: saline 91 % of control

O=C1OC(C(O)CO)C(=O)C1=O (stereo not given)
inactive: [10] 97 % of control | dose: 100.0 mg/kg/injection, schedule: Q01DX001 (ip), vehicle: water 102 % of control | [3] 97 % of control | dose: 100.0 mg/kg/injection, schedule: Q01DX009 (ip), vehicle: water 105 % of control | dose: 100.0 mg/kg/injection, schedule: Q04DX003 (ip), vehicle: water 104 % of control | dose: 200.0 mg/kg/injection, schedule: Q01DX001 (ip), vehicle: water 107 % of control | [6] 101 % of control | dose: 200.0 mg/kg/injection, schedule: Q01DX009 (ip), vehicle: water 106 % of control | dose: 200.0 mg/kg/injection, schedule: Q04DX003 (ip), vehicle: water 109 % of control | dose: 400.0 mg/kg/injection, schedule: Q01DX001 (ip), vehicle: water 107 % of control | dose: 400.0 mg/kg/injection, schedule: Q01DX009 (ip), vehicle: water 116 % of control | dose: 400.0 mg/kg/injection, schedule: Q04DX003 (ip), vehicle: water 115 % of control | dose: 800.0 mg/kg/injection, schedule: Q01DX001 (ip), vehicle: water 102 % of control | dose: 800.0 mg/kg/injection, schedule: Q01DX009 (ip), vehicle: water 111 % of control | dose: 800.0 mg/kg/injection, schedule: Q04DX003 (ip), vehicle: water 121 % of control

N/C(=N\O)c1ccc2ccc3cccnc3c2n1
inactive: [11] 102 % of control | [12] 87 % of control

Cc1ccc(S(=O)(=O)NNc2c3ccccc3nc3ccc(Cl)cc23)cc1
inactive: dose: 100.0 mg/kg/injection, schedule: Q04DX002 (ip), vehicle: saline with Tween-80 101 % of control | dose: 200.0 mg/kg/injection, schedule: Q04DX002 (ip), vehicle: saline with Tween-80 97 % of control | dose: 400.0 mg/kg/injection, schedule: Q04DX002 (ip), vehicle: saline with Tween-80 97 % of control

CCc1ccccc1NC(=S)Nc1ccccc1
inactive: dose: 100.0 mg/kg/injection, schedule: Q04DX002 (ip), vehicle: Klucel (hydroxypropylcellulose) (HPC) 105 % of control | dose: 200.0 mg/kg/injection, schedule: Q04DX002 (ip), vehicle: Klucel (hydroxypropylcellulose) (HPC) 105 % of control | dose: 400.0 mg/kg/injection, schedule: Q04DX002 (ip), vehicle: Klucel (hydroxypropylcellulose) (HPC) 105 % of control

O=C1/C(=C/c2ccccn2)CCc2cc(Cl)ccc21
inactive: [13] 93 % of control | [14] 96 % of control | dose: 400.0 mg/kg/injection, schedule: Q04DX003 (ip), vehicle: carboxymethylcellulose (CMC) 96 % of control

O=C(Nc1ccc(C(=O)Cl)cc1)OCCCl
inactive: [11] 96 % of control | [12] 96 % of control | dose: 400.0 mg/kg/injection, schedule: Q04DX003 (ip), vehicle: saline with Tween-80 96 % of control

CCCC/C=C/CCl
inactive: [2] 88 % of control | [4] 102 % of control | [5] 91 % of control | [7] 95 % of control | [8] 90 % of control | [9] 98 % of control

COc1cccc(Cc2c[nH]c(=S)[nH]c2=O)c1
inactive: [1] 108 % of control | [15] 96 % of control

CCCCC(=O)N1CCCCC1
inactive: dose: 50.0 mg/kg/injection, schedule: Q01DX001 (ip), vehicle: carboxymethylcellulose (CMC) 104 % of control | dose: 50.0 mg/kg/injection, schedule: Q01DX009 (ip), vehicle: carboxymethylcellulose (CMC) 94 % of control and 97 % of control | dose: 50.0 mg/kg/injection, schedule: Q04DX003 (ip), vehicle: carboxymethylcellulose (CMC) 102 % of control | [16] 106 % of control | dose: 100.0 mg/kg/injection, schedule: Q01DX009 (ip), vehicle: carboxymethylcellulose (CMC) 94 % of control and 102 % of control | dose: 100.0 mg/kg/injection, schedule: Q04DX002 (ip), vehicle: carboxymethylcellulose (CMC) 98 % of control | [13] 96 % of control | [17] 101 % of control | dose: 200.0 mg/kg/injection, schedule: Q01DX009 (ip), vehicle: carboxymethylcellulose (CMC) 96 % of control and 87 % of control | dose: 200.0 mg/kg/injection, schedule: Q04DX002 (ip), vehicle: carboxymethylcellulose (CMC) 91 % of control | [14] 97 % of control

Cc1ccc([N+](=O)[O-])cc1NC(=O)Nc1ccc(CCO)cc1
inactive: [1] 90 % of control | [15] 93 % of control

CCS(=O)(=O)C(CCC(C)C)CCC(C)C
inactive: [16] 102 % of control | [17] 109 % of control | dose: 400.0 mg/kg/injection, schedule: Q01DX001 (ip), vehicle: carboxymethylcellulose (CMC) 104 % of control

CCN(CC)CCOC(=O)c1ccccc1Nc1cccc(C)c1
inactive: dose: 4.0 mg/kg/injection, schedule: Q01DX015 (ip), vehicle: saline 98 % of control | dose: 8.0 mg/kg/injection, schedule: Q01DX015 (ip), vehicle: saline 102 % of control | dose: 16.0 mg/kg/injection, schedule: Q01DX015 (ip), vehicle: saline 98 % of control | dose: 32.0 mg/kg/injection, schedule: Q01DX015 (ip), vehicle: saline 106 % of control | dose: 50.0 mg/kg/injection, schedule: Q04DX003 (ip), vehicle: saline 101 % of control | [4] 103 % of control
